Earlier results, collected in article PMC7898037, “Improving mitochondria and ER stability helps eliminate upper motor neuron degeneration that occurs due to mSOD1 toxicity and TDP‐43 pathology” (Clinical and Translational Medicine, 2021).

Legend:
[1] = system: SOD1^G93A‐expressing PC12 cell; details: PC12 cell‐based assay; cited from earlier work
[2] = system: SOD1 model mouse; details: cited from earlier work
[3] = system: cortical neurons; set-up: method as in earlier work; details: ref 53 (compound 2), ref 54 (NU‐9); cited from earlier work

O=C1CC(=O)CC(c2ccc(F)cc2)C1 [compound 1]
effect on mSOD1‐induced protein aggregation [1]: inhibit mSOD1‐induced protein aggregation | effect on mSOD1‐mediated toxicity [1]: reduce mSOD1‐mediated toxicity

Nc1nc2ccc(OC(F)(F)F)cc2s1 [riluzole]
longevity of the misfolded SOD1 (mSOD1) mouse model [2]: failed to improve the longevity

O=C1CC(=O)CC(c2cc(C(F)(F)F)cc(C(F)(F)F)c2)C1 [compound 2]
penetration into neurons [3]: did not penetrate into neurons
